Laboratory results as given in patent US7776847B2, “Benzisothiazoles useful for treating or preventing HCV infection” (priority 2005, dated 2010).

These molecules were tested on HCV replicon (assay: HCV replicon luciferase reporter assay). Conditions: Hepatitis C virus.
Assay type: cell-based
Design: scale not given here
Description: The inhibitory activity of certain exemplary compounds of the invention was confirmed using an HCV replicon assay. The HCV replicon can include such features as the HCV IRES, the HCV 3′ untranslated region, selected HCV genes encoding HCV polypeptides, selectable markers, and a reporter gene such as luciferase, GFP, etc. In the assay, actively dividing replicon-comprising cells were seeded at a density of between about 5,000 and 7,500 cells/well onto 96 well plates (about 90 μl of cells per well) and incubated at 37° C. and 5% CO2 for 24 hours. Then, the test compound (in a volume of about 10 μL) was added at various concentrations to each well and the cells were incubated for an additional 24-48 hours. The cells were harvested, and HCV replication or translation was monitored via a reporter assay, e.g., a luciferase reporter assay. The media was aspirated from each cell and Bright-Glo ([…].) luciferase assay reagents were added to each well according to the manufacturer's instructions. In this assay, the amount of test compound that yielded a 50% reduction in luciferase activity (IC50) was determined.
For `O=C(N1CCc2ccc(S(=O)(=O)NCCCNc3nsc4ccccc34)cc2C1)C(F)(F)F` [Compound 252, N-(3-(benzo[d]isothiazol-3-ylamino)propyl)-2-(2,2,2-trifluoroacetyl)-1,2,3,4-tetrahydroisoquinoline-7-sulfonamide], the IC50 was less than 5 µM.

Same assay, conditions: Hepatitis C virus, Table 5; read-out: IC50
`CC(C)[C@H](NC(=O)OC(C)(C)C)C(=O)NCCNc1nsc2ccccc12` [Entry 18, (S)-tert-Butyl 1-(2-(Benzo[d]isothiazol-3-ylamino)ethylamino)-3-methyl-1-oxobutan-2-ylcarbamate] was tested, and the IC50 was less than 5 µM. `CCCc1ccc(C(=O)NCCCNc2nsc3ccccc23)cc1` [Compound 273, N-(3-(benzo[d]isothiazol-3-ylamino)propyl)-4-propylbenzamide] showed an IC50 of less than 5 µM. `FC(F)(F)Oc1ccc(-c2ccc(CNCCCNc3nsc4ccccc34)cc2)cc1` [Compound 336, N^1-(benzo[d]isothiazol-3-yl)-N^3-((4′-(trifluoromethoxy)biphenyl-4-yl)methyl)propane-1,3-diamine] was tested, and the IC50 was less than 5 µM. `Brc1ccc(CNCCCNc2nsc3ccccc23)cc1` [Compound 287, N^1-(benzo[d]isothiazol-3-yl)-N^3-(4-bromobenzyl)propane-1,3-diamine] showed an IC50 of less than 5 µM. Work on `Cn1c(C(=O)NCCNc2nsc3ccccc23)cc2ccccc21` [Compound 412, N-(2-(benzo[d]isothiazol-3-ylamino)ethyl)-1-methyl-1H-indole-2-carboxamide] yielded an IC50 of less than 5 µM. `CN(CCCN(C)S(=O)(=O)c1ccccc1C(F)(F)F)c1nsc2ccccc12` [Compound 345, N-(3-(benzo[d]isothiazol-3-yl(methyl)amino)propyl)-N-methyl-2-(trifluoromethyl)benzenesulfonamide] gave an IC50 greater than 5 µM. In the case of `COc1ccc(-c2ccc(CN(CCCNc3nsc4ccccc34)S(=O)(=O)c3cn(C)c(C)n3)cc2)cc1` [Compound 316, N-(3-(benzo[d]isothiazol-3-ylamino)propyl)-N-((4′-methoxybiphenyl-4-yl)methyl)-1,2-dimethyl-1H-imidazole-4-sulfonamide], the IC50 is reported as less than 5 µM. Work on `c1ccc(CN2CCCC(NCCCNc3nsc4ccccc34)C2)cc1` (stereo not drawn) [Compound 306, N^1-(benzo[d]isothiazol-3-yl)-N^3-(1-benzylpiperidin-3-yl)propane-1,3-diamine] yielded an IC50 of less than 5 µM. With `COc1ccc(-c2ccc(CN(CCCNC3=NS(=O)(=O)c4ccccc43)S(=O)(=O)c3cn(C)c(C)n3)cc2)cc1` [Compound 340, N-{3-[(1,1-dioxido-1,2-benzisothiazol-3-yl)amino]propyl}-N-[(4′-methoxybiphenyl-4-yl)methyl]-1,2-dimethyl-1H-imidazole-4-sulfonamide] the IC50 was greater than 5 µM. Molecule `O=C(NCCCNc1nsc2ccccc12)c1ccc(O)nc1` [Compound 451, N-(3-(benzo[d]isothiazol-3-ylamino)propyl)-6-hydroxynicotinamide] has an IC50 greater than 5 µM. `O=C(NCCCNc1nsc2ccccc12)c1ccc(OCCN2CCOCC2)c(Br)c1` [Compound 397, N-(3-(benzo[d]isothiazol-3-ylamino)propyl)-3-bromo-4-(2-morpholinoethoxy)benzamide] showed an IC50 of less than 5 µM. Molecule `COc1ccccc1-c1ccc(NC(=O)NCCCNc2nsc3ccccc23)cc1` [Compound 395, 1-(3-(benzo[d]isothiazol-3-ylamino)propyl)-3-(2′-methoxybiphenyl-4-yl)urea] has an IC50 of less than 5 µM. `O=S(=O)(c1ccccc1C(F)(F)F)N(CCCNc1nsc2ccccc12)Cc1ccccc1` [Compound 254, N-(3-(benzo[d]isothiazol-3-ylamino)propyl)-N-benzyl-2-(trifluoromethyl)benzenesulfonamide] gave an IC50 of less than 5 µM. `N[C@H](C(=O)NCCNc1nsc2ccccc12)c1ccccc1` [Entry 74, (S)-2-Amino-N-(2-(benzo[d]isothiazol-3-ylamino)ethyl)-2-phenylacetamide] was tested, and the IC50 was greater than 5 µM. For `O=C(NCCNc1nsc2ccccc12)c1ccc(C(F)(F)F)c(F)c1` [Compound 355, N-(2-(benzo[d]isothiazol-3-ylamino)ethyl)-3-fluoro-4-(trifluoromethyl)benzamide], the IC50 was less than 5 µM. `O=Cc1ccc(C(=O)NCCNc2nsc3ccccc23)cc1` [Compound 415, N-(2-(benzo[d]isothiazol-3-ylamino)ethyl)-4-formylbenzamide] gave an IC50 greater than 5 µM. Work on `O=C(NCCNc1nsc2ccccc12)c1c(F)cccc1C(F)(F)F` [Compound 358, N-(2-(benzo[d]isothiazol-3-ylamino)ethyl)-2-fluoro-6-(trifluoromethyl)benzamide] yielded an IC50 greater than 5 µM. Work on `O=C(NCCNc1nsc2ccccc12)c1cccc(-c2cccc3cccnc23)c1` [Compound 374, N-(2-(benzo[d]isothiazol-3-ylamino)ethyl)-3-(quinolin-8-yl)benzamide] yielded an IC50 of less than 5 µM. For `O=S(=O)(NCCCNc1nsc2ccccc12)c1c(Cl)cc(Br)cc1Cl` [Compound 267, N-(3-(benzo[d]isothiazol-3-ylamino)propyl)-4-bromo-2,6-dichlorobenzenesulfonamide], the IC50 was less than 5 µM. With `COC(=O)c1cnc(NCCCNc2nsc3ccccc23)nc1C(F)(F)F` [Entry 225, methyl 2-(3-(benzo[d]isothiazol-3-ylamino)propylamino)-4-(trifluoromethyl)pyrimidine-5-carboxylate] the IC50 was less than 5 µM. For `O=S(=O)(NCCCNc1nsc2ccccc12)c1cc(C(F)(F)F)cc(C(F)(F)F)c1` [Compound 246, N-(3-(benzo[d]isothiazol-3-ylamino)propyl)-3,5-bis(trifluoromethyl)benzenesulfonamide], the IC50 was less than 5 µM. `CC(C)(C)OC(=O)N1CCCC(C(=O)NCCNc2nsc3ccc(Cl)cc23)C1` (stereo not drawn) [Compound 424, tert-butyl 3-(2-(5-chlorobenzo[d]isothiazol-3-ylamino)ethylcarbamoyl)piperidine-1-carboxylate] showed an IC50 of less than 5 µM. `c1ccc(-c2[nH]c3ccccc3c2CNCCCNc2nsc3ccccc23)cc1` [Compound 330, N^1-(benzo[d]isothiazol-3-yl)-N^3-((2-phenyl-1H-indol-3-yl)methyl)propane-1,3-diamine] gave an IC50 of less than 5 µM. For `N#Cc1ccc(NCCCNc2nsc3ccccc23)nc1` [Entry 224, 6-(3-(benzo[d]isothiazol-3-ylamino)propylamino)pyridine-3-carbonitrile], the IC50 was less than 5 µM. `COc1ccc(Cl)cc1-c1cccc(CNCCCNc2nsc3ccccc23)c1` [Compound 302, N^1-(benzo[d]isothiazol-3-yl)-N^3-((3′-chloro-6′-methoxybiphenyl-3-yl)methyl)propane-1,3-diamine] was tested, and the IC50 was less than 5 µM. For `CCCCC(=O)Nc1ccc2oc(C(=O)NCCCNc3nsc4ccccc34)cc2c1` [Compound 453, N-(3-(benzo[d]isothiazol-3-ylamino)propyl)-5-pentanamidobenzofuran-2-carboxamide], the IC50 was less than 5 µM. `O=C(c1ccccc1)c1cccnc1C(=O)NCCNc1nsc2ccccc12` [Entry 12, N-(2-(Benzo[d]isothiazol-3-ylamino)ethyl)-3-benzoylpicolinamide] gave an IC50 of less than 5 µM. Work on `CCCOc1ccc(F)cc1-c1ccc(C(=O)NCCNc2nsc3ccccc23)cc1` [Compound 367, N-(2-(benzo[d]isothiazol-3-ylamino)ethyl)-5′-fluoro-2′-propoxybiphenyl-4-carboxamide] yielded an IC50 of less than 5 µM. `O=S(=O)(NCCCNc1nsc2ccccc12)c1cccc2cccnc12` [Compound 249, N-(3-(benzo[d]isothiazol-3-ylamino)propyl)quinoline-8-sulfonamide] was tested, and the IC50 was less than 5 µM. `COc1ccc2[nH]c(C(=O)NCCNc3nsc4ccc(Cl)cc34)cc2c1` [Compound 432, N-(2-(5-chlorobenzo[d]isothiazol-3-ylamino)ethyl)-5-methoxy-1H-indole-2-carboxamide] was tested, and the IC50 was less than 5 µM. `O=C(NCCNc1nsc2ccccc12)c1cc(F)ccc1C(F)(F)F` [Compound 352, N-(2-(benzo[d]isothiazol-3-ylamino)ethyl)-5-fluoro-2-(trifluoromethyl)benzamide] showed an IC50 greater than 5 µM. `CCOc1cc(OCC)cc(C(=O)NCCCNc2nsc3ccccc23)c1` [Compound 391, N-(3-(benzo[d]isothiazol-3-ylamino)propyl)-3,5-diethoxybenzamide] gave an IC50 of less than 5 µM. `O=C(NCCNc1nsc2ccccc12)c1cccc(-c2ccc3ccccc3c2)c1` [Compound 373, N-(2-(benzo[d]isothiazol-3-ylamino)ethyl)-3-(naphthalen-2-yl)benzamide] showed an IC50 of less than 5 µM. Molecule `COc1ccc(-c2ccc(CN(CCCNc3nsc4ccccc34)C(=O)CNC(C)C)cc2)cc1` [Compound 257, N-(3-(benzo[d]isothiazol-3-ylamino)propyl)-2-(isopropylamino)-N-((4′-methoxybiphenyl-4-yl)methyl)acetamide] has an IC50 of less than 5 µM. `O=S(=O)(NCCCNc1nsc2ccccc12)c1ccc(I)cc1` [Compound 325, N-(3-(benzo[d]isothiazol-3-ylamino)propyl)-4-iodobenzenesulfonamide] was tested, and the IC50 was less than 5 µM. With `CCCNc1ccc(C(=O)NCCCNc2nsc3ccccc23)cc1` [Compound 290, N-(3-(benzo[d]isothiazol-3-ylamino)propyl)-4-(propylamino)benzamide] the IC50 was less than 5 µM. With `O=C(NCCCNc1nsc2ccccc12)c1ccc(O)c(Br)c1` [Compound 396, N-(3-(benzo[d]isothiazol-3-ylamino)propyl)-3-bromo-4-hydroxybenzamide] the IC50 was less than 5 µM.

Same assay, conditions: Table 5; the head prints only IC50; b387 says Tables 5 and 6 hold Replicon reporter and Western blot results
With `c1ccc(CNCCNc2nsc3ccccc23)nc1` [Compound 272, N^1-(benzo[d]isothiazol-3-yl)-N^2-(pyridin-2-ylmethyl)ethane-1,2-diamine] the IC50 was “A, B”.
